The results in this text go back to article doi:10.1101/2021.10.04.463106, “A high throughput screening assay for inhibitors of SARS-CoV-2 pseudotyped particle entry” (bioRxiv, 2021).

Like-named read-outs stand apart in the source and are kept apart here.

Holding throughout (assay): microbe, parasite or virus in culture
Format in all cases: cell-based

Test [1] relates to SARS-CoV-2-S PP (Wuhan-Hu-1 spike).
Test [2] relates to SARS-CoV-2-S PP (B.1.1.7 spike variant).
Test [3] has as its system SARS-CoV-2-S PP (B.1.351 spike variant).
[4] abbreviates: Severe acute respiratory syndrome coronavirus 2, read-out: EC50, Wuhan-Hu-1 PP.
Where [5] appears, read: Severe acute respiratory syndrome coronavirus 2, read-out: EC50, B.1.1.7 PP.
Where [6] appears, read: Severe acute respiratory syndrome coronavirus 2, read-out: EC50, B.1.351 PP.

As for `COc1cc(N2CCC(N3CCN(C)CC3)CC2)ccc1Nc1ncc(Cl)c(Nc2ccccc2P(C)(C)=O)n1` [Brigatinib, brigatinib], the EC50 (usually the midpoint of the concentration-response curve) in test [1] (setting [4]) stood at 38 nM; in test [2] (setting [5]) it was 54 nM; in test [3] (setting [6]), 23 nM.
Consider `CCCC[C@@H](C=O)NC(=O)[C@H](CC(C)C)NC(=O)OCc1ccccc1` [Calpeptin, calpeptin], for which the EC50 in test [1] (setting [4]) came out at 870 nM; in test [2] (setting [5]), 310 nM; in test [3] (setting [6]), 1070 nM.
As to `CCOC(=O)[C@H]1O[C@@H]1C(=O)N[C@@H](CC(C)C)C(=O)NCCC(C)C` [Aloxistatin, aloxistatin], the EC50 is 800 nM in test [1] (setting [4]), 460 nM in test [2] (setting [5]) and 1210 nM in test [3] (setting [6]).
`Cc1cccc(/C=N/Nc2cc(N3CCOCC3)nc(OCCc3ccccn3)n2)c1` [Apilimod, apilimod]: the EC50 in test [1] (Severe acute respiratory syndrome coronavirus 2, read-out: EC50 in Wuhan-Hu-1 SARS-CoV-2-S PP entry assay) was 9.2 nM; in test [2] (Severe acute respiratory syndrome coronavirus 2, read-out: EC50 in B.1.1.7 SARS-CoV-2-S PP entry assay), 1.3 nM; in test [3] (Severe acute respiratory syndrome coronavirus 2, read-out: EC50 in B.1.351 SARS-CoV-2-S PP entry assay), 4.7 nM. Also, the “shift in potency between the Wuhan-Hu-1 spike sequence and the B.1.1.7 spike variant” value in test [2] is on record as 7 fold.
